Like-named read-outs stand apart in the source and are kept apart here.
Columns and labels:
[1] = Phase I single oral dose pharmacokinetic study of dorzagliatin in subjects with mild or moderate hepatic impairment and healthy subjects (plasma, LC-MS/MS, non-compartmental); type: in vivo, human; conditions: for AUC(0-inf) / AUC(0-t) / Cmax / half-life / Vd/F / Tmax: both sexes, human, plasma, po, 25 mg; for Vd/F: read-out: Vz/F; for Tmax: median
Protocol: This phase I study is to access the pharmacokinetics and safety of a single dose of dorzagliatin in subjects with mild or moderate hepatic impairment, and heathy subjects. […] The eligible subjects of Groups A and B are matched closely with the healthy subjects of Group C as to their sexes, ages (±5 yrs), and BMIs (±15%).
on Day −2 or −1, eligible subjects are admitted to a clinical research center (CRC). […], the subjects have no additional food after a standard dinner for at least 10 h. In the morning of Day 1, the subjects each receive dorzagliatin (25 mg) orally with empty stomach. One hour later, the subjects have a standardized breakfast. Blood samples are collected at the following time points: within 60 min pre-dose; and at 0.25, 0.5, 1, 1.5, 2, 2.5, 3, 4, 6, 8, 12, 24, 36, 48, and 72 h post-dose. The samples are analyzed using LC-MS/MS. The plasma concentration-time data for dorzagliatin are analyzed using a non-compartmental model to obtain PK parameters, including Cmax, AUClast, and AUCinf. An ANOVA analysis is performed on the data between Group C and Groups A and B.
Study design: This study was designed to evaluate the PK and safety of a single oral dose of dorzagliatin 25 mg in subjects with hepatic impairment compared with matched healthy subjects using an open label, single-center, parallel study design. The study population (as shown in Table 1) consisted of subjects with mild (group A) and moderate (group B) hepatic impairment and healthy subjects (group C) matched for sex, mean age, and mean BMI. The number of subjects who completed the study in each group was not less than 8, both male and female, and no less than 3 subjects of a single sex in each group.
(§1) Eligible subjects were admitted to the Phase 1 study ward on either Day −2 or Day −1 to complete the baseline examination, and re-confirmed the inclusion/exclusion criteria by the investigator and fed a standardized meal after admission. Subjects were fasted at least 10 hours overnight while water was not deprived after the standardized dinner on Day −1, and received a single dose of dorzagliatin 25 mg (25 mg/tablet, 1 tablet) with 240 mL of warm water on the morning of Day 1. Subjects should start the standardized breakfast about 1 hour after administration and complete the meal within 30 minutes. Blood samples for PK and plasma protein binding (PPB) analyses were collected at specified time points within 1 hour pre-dose through 72 hours post-dose. The corresponding safety indicators at preset time points were detected for safety assessment.
(§2) Pharmacokinetic Evaluation • PK blood sampling time: Within 1 hour pre-dose and 0.25, 0.5, 1, 1.5, 2, 2.5, 3, 4, 6, 8, 12, 24, 36, 48 and 72 hours post-dose of dorzagliatin on Day 1. • PPB blood sampling time: Within 1 hour pre-dose and 1 hour post-dose of dorzagliatin. • Bioanalytical method: dorzagliatin in plasma was analyzed using a validated method of liquid chromatography-tandem mass spectrometry (LC-MS/MS). • PK parameters. Primary PK endpoint: Cmax, AUClast, AUCinf; Secondary PK endpoint (if applicable): Cmax,u, AUClast,u, AUCinf,u, Tmax, T1/2, CL/F, Vz/F, fu.

[2] = Plasma protein binding (PPB) analysis, free drug percentage (fu); type: in vitro ADME; conditions: human, oral, 25 mg
Protocol: as §1, §2

[3] = Safety evaluation (adverse events) after single oral dose of dorzagliatin 25 mg; type: in vivo, human
Protocol: Safety Evaluation • Physical examination: Evaluated at screening, baseline, Day 2, Day 3, discharge examination on Day 4. • Vital signs: Evaluated at screening, baseline, 24 and 48 hours post-dose, discharge examination on Day 4. • 12-lead ECG: Evaluated at screening, baseline, 24 hours and 48 hours post-dose, discharge examination on Day 4. Test once at each time point. • Hematology, blood biochemistry and urinalysis: Evaluated at screening, baseline, 24 hours, 48 hours and 72 hours post-dose. • Adverse events (AEs): All the subjects are observed for any AEs occurring from the signing of the ICF to the end of study. The clinical manifestations, severity, occurrence time, end time (if applicable), treatment measure, outcome and other information of each AE are recorded, and the correlation between an AE and the study drugs is judged.

[4] = single oral dose 25 mg, healthy group, arithmetic mean
[5] = single oral dose 25 mg, mild hepatic impairment group, arithmetic mean
[6] = single oral dose 25 mg, moderate hepatic impairment group, arithmetic mean
[7] = moderate hepatic impairment group

## CC(C)C[C@@H](C(=O)Nc1ccn(C[C@@H](O)CO)n1)N1CC(Oc2ccccc2Cl)=CC1=O [dorzagliatin, (S)-2-(4-(2-chlorophenoxy)-2-oxo-2,5-dihydro-1H-pyrrol-1-yl)-N-(1-((R)-2,3-dihydroxypropyl)-1H-pyrazol-3-yl)-4-methylpentanamide]
[1]; free drug, single oral dose 25 mg, healthy group, arithmetic mean, read-out: AUCinf,u
  AUC(0-inf): 123 ng·h/mL
[1]; free drug, single oral dose 25 mg, healthy group, arithmetic mean, read-out: AUClast,u
  AUC(0-t): 122 ng·h/mL
[1]; free drug, single oral dose 25 mg, healthy group, read-out: AUCinf,u, geometric least squares mean
  AUC(0-inf): 119 ng·h/mL
[1]; free drug, single oral dose 25 mg, healthy group, read-out: AUClast,u, geometric least squares mean
  AUC(0-t): 118 ng·h/mL
[1]; free drug, single oral dose 25 mg, mild hepatic impairment group (N=7), arithmetic mean, read-out: AUCinf,u
  AUC(0-inf): 170 ng·h/mL
[1]; free drug, single oral dose 25 mg, mild hepatic impairment group (N=7), arithmetic mean, read-out: AUClast,u
  AUC(0-t): 169 ng·h/mL
[1]; free drug, single oral dose 25 mg, moderate hepatic impairment group, arithmetic mean, read-out: AUCinf,u
  AUC(0-inf): 287 ng·h/mL
[1]; free drug, single oral dose 25 mg, moderate hepatic impairment group, arithmetic mean, read-out: AUClast,u
  AUC(0-t): 284 ng·h/mL
[1]; free drug, single oral dose 25 mg, moderate hepatic impairment group, read-out: AUCinf,u, geometric least squares mean
  AUC(0-inf): 282 ng·h/mL
[1]; free drug, single oral dose 25 mg, moderate hepatic impairment group, read-out: AUClast,u, geometric least squares mean
  AUC(0-t): 280 ng·h/mL
[1]; single oral dose 25 mg, fasted, healthy group, arithmetic mean, read-out: Cmax
  Cmax: 325 ng/mL
[1]; single oral dose 25 mg, fasted, mild hepatic impairment group (Child-Pugh 5-6), arithmetic mean, read-out: Cmax
  Cmax: 382 ng/mL
[1]; single oral dose 25 mg, fasted, moderate hepatic impairment group (Child-Pugh 7-9), arithmetic mean, read-out: Cmax
  Cmax: 370 ng/mL
[1]; [4]
  half-life: 6.22 h
  Vd/F: 122 L
  CL/F: 13.7 L/h
[1]; single oral dose 25 mg, healthy group, arithmetic mean, read-out: AUCinf
  AUC(0-inf): 1910 ng·h/mL
[1]; single oral dose 25 mg, healthy group, arithmetic mean, read-out: AUClast
  AUC(0-t): 1890 ng·h/mL
[1]; single oral dose 25 mg, healthy group
  Tmax: 1.75 h
[1]; single oral dose 25 mg, healthy group, read-out: AUCinf, geometric least squares mean
  AUC(0-inf): 1870 ng·h/mL
[1]; single oral dose 25 mg, healthy group, read-out: AUClast, geometric least squares mean
  AUC(0-t): 1840 ng·h/mL
[1]; single oral dose 25 mg, healthy group, read-out: Cmax, geometric least squares mean
  Cmax: 307 ng/mL
[1]; [5]
  half-life: 6.25 h
  Vd/F: 106 L
  CL/F: 11.8 L/h
[1]; single oral dose 25 mg, mild hepatic impairment group, arithmetic mean, read-out: AUCinf
  AUC(0-inf): 2260 ng·h/mL
[1]; single oral dose 25 mg, mild hepatic impairment group, arithmetic mean, read-out: AUClast
  AUC(0-t): 2240 ng·h/mL
[1]; single oral dose 25 mg, mild hepatic impairment group
  Tmax: 1.5 h
[1]; single oral dose 25 mg, mild hepatic impairment group, read-out: AUCinf, geometric least squares mean
  AUC(0-inf): 2190 ng·h/mL
[1]; single oral dose 25 mg, mild hepatic impairment group, read-out: AUClast, geometric least squares mean
  AUC(0-t): 2170 ng·h/mL
[1]; single oral dose 25 mg, mild hepatic impairment group, read-out: Cmax, geometric least squares mean
  Cmax: 370 ng/mL
[1]; [6]
  half-life: 8.04 h
  Vd/F: 85.2 L
  CL/F: 7.43 L/h
[1]; single oral dose 25 mg, moderate hepatic impairment group, arithmetic mean, read-out: AUCinf
  AUC(0-inf): 3450 ng·h/mL
[1]; single oral dose 25 mg, moderate hepatic impairment group, arithmetic mean, read-out: AUClast
  AUC(0-t): 3410 ng·h/mL
[1]; single oral dose 25 mg, moderate hepatic impairment group, mean, read-out: AUClast
  AUC(0-t): 3410 ng·h/mL
[1]; single oral dose 25 mg, moderate hepatic impairment group
  Tmax: 1.5 h
[1]; single oral dose 25 mg, moderate hepatic impairment group, read-out: AUCinf, geometric least squares mean
  AUC(0-inf): 3410 ng·h/mL
[1]; single oral dose 25 mg, moderate hepatic impairment group, read-out: AUClast, geometric least squares mean
  AUC(0-t): 3370 ng·h/mL
[1]; single oral dose 25 mg, moderate hepatic impairment group, read-out: Cmax, geometric least squares mean
  Cmax: 362 ng/mL
[1]; free drug, single oral dose 25 mg, healthy group
  Cmax,u, geometric least squares mean: 19.7 ng/mL
[1]; free drug, single oral dose 25 mg, healthy group, arithmetic mean
  Cmax,u: 21.0 ng/mL
[1]; free drug, single oral dose 25 mg, mild hepatic impairment group (N=7), arithmetic mean
  Cmax,u: 28.8 ng/mL
[1]; free drug, single oral dose 25 mg, moderate hepatic impairment group
  Cmax,u, geometric least squares mean: 30.0 ng/mL
[1]; free drug, single oral dose 25 mg, moderate hepatic impairment group, arithmetic mean
  Cmax,u: 30.7 ng/mL
[1]; mild hepatic impairment group
  increase of geometric mean of AUCinf compared with healthy subjects: ~17%
  increase of geometric mean of AUClast compared with healthy subjects: approximately 18%
  increase of geometric mean of Cmax compared with healthy subjects: approximately 20%
[1]; mild hepatic impairment vs healthy subjects
  effect of mild hepatic impairment on clearance and exposure level: no significant effect
[1]; [7]
  increase of geometric mean of AUCinf compared with healthy subjects: ~83%
  increase of geometric mean of AUClast compared with healthy subjects: ~83%
  increase of geometric mean of Cmax compared with healthy subjects: approximately 18%
  increase of geometric mean of free AUCinf compared with the healthy group: ~137%
  increase of geometric mean of free AUClast compared with the healthy group: ~137%
[1]; moderate hepatic impairment vs healthy subjects
  clearance and exposure level in moderate hepatic impairment: the drug clearance was decreased and the exposure level was increased
[1]; moderate hepatic impairment, conclusion, AUC not further specified
  increase of AUC of free drug compared with healthy subjects: ~137%
[1]; single oral dose 25 mg
  absorption after oral administration: rapidly absorbed
[2]; free drug percentage in plasma, healthy group, arithmetic mean, read-out: fu
  fraction unbound: 0.0646
[2]; free drug percentage in plasma, mild hepatic impairment group (N=7), arithmetic mean, read-out: fu
  fraction unbound: 0.0719
[2]; free drug percentage in plasma, moderate hepatic impairment group, arithmetic mean, read-out: fu
  fraction unbound: 0.0832
[2]; healthy group, read-out: free drug percentage (fu), geometric mean
  fraction unbound: 0.0639
[2]; mild hepatic impairment group, read-out: free drug percentage (fu), geometric mean
  fraction unbound: 0.0712
[2]; moderate hepatic impairment group, read-out: free drug percentage (fu), geometric mean
  fraction unbound: 0.0829
[3]; all subjects
  number of AEs: 20
  number of TEAEs: 18
  number of TEAEs considered possibly related to the study drug: 10
  subjects with TEAEs considered possibly related to the study drug: 25.0%
[3]; all subjects, during the study
  SAEs, death, or significant TEAEs: no SAEs, death, or significant TEAEs
[3]; all subjects, mild in most cases
  subjects who experienced TEAEs: 33.3%
[3]; all subjects, single oral dose 25 mg
  subjects who experienced AEs: 33.3%
[3]; healthy group
  subjects who experienced AEs: No subjects
[3]; mild hepatic impairment group
  number of AEs: 13
  number of TEAEs considered possibly related to the study drug: 8
  subjects who experienced AEs: 62.5%
  subjects with TEAEs considered possibly related to the study drug: 50.0%
[3]; [7]
  number of AEs: 7
  number of TEAEs considered possibly related to the study drug: 2
  subjects who experienced AEs: 37.5%
  subjects with TEAEs considered possibly related to the study drug: 25.0%
[3]; single oral dose, subjects with mild and moderate hepatic impairment
  safety and tolerability: safe and well tolerated
